# Entries after “also recorded” stand apart in the source; their conditions may differ.
# System: influx of neutrophils to the lung in LPS-challenged rats
# Assay: Rat LPS neutrophilia model
# Type: in vivo
# Conditions: LPS aerosol, intratracheal dosing, in at least one of the range of conditions tested, significance p<0.05
# Experimental: Rat LPS Neutrophilia Model
# The effect of compounds on the influx of neutrophils to the lung in LPS-challenged rats is evaluated as follows. The test compound is suspended in one of the following solutions: 0.5% tween 80/PBS, 0.5% tween 80/saline, 10% EtOH/saline (with pH adjusted to 2.0, or 8.0 with HCl, or unadjusted), Saline @pH 2.0, 6.5 or 8.0, 0.5% Tragacanth, 1% DMSO/20% Encapsin/Saline, or acidified 5% Tragacanth. The suspension process may be aided by the use of a glass homogenizer. For intratracheal administration, the animals are anesthetized with inhaled isoflurane and placed in a supine position, the trachea is intubated with a steel gavage needle (1.5 inch, 22 gauge, small ball) or a Penn-Century Microsprayer Aerosolizer (model IA-1B) and 200 ul of dosing solution is delivered. The animals are visually monitored during the recovery process, which typically occurs within two minutes. It is noted that the test compounds may be alternatively administered via the microsprayer in a dry powder blend with a suitable excipient, such as lactose.
# Rats treated with compound or vehicle (15 min-24 hours pretreatment) are exposed to an LPS aerosol (100 ug/ml) for 15 min. Four hours later the rats are euthanized with pentobarbital (100 mg/kg, i.p.) and the airways are lavaged with 5 washes of 5 ml of phosphate buffered saline. The harvested cells are stained (Diffquick) and counted to determine total and differential cell data. […] Inhibition of neutrophil levels relative to no compound controls is calculated based on the differential counts.
# The data is obtained as % inhibition using a particular concentration and pretreat time.
row,Structure (SMILES),inhibition of neutrophilia
1,"Cc1ccc(C(=O)NC2CCCC2)cc1-c1nc(N2CCC(N)CC2)nc2c1ccc(=O)n2-c1c(F)cccc1F [Example 70, 3-[2-(4-amino-1-piperidinyl)-8-(2,6-difluorophenyl)-7-oxo-7,8-dihydropyrido[2,3-d]pyrimidin-4-yl]-N-cyclopentyl-4-methylbenzamide]",statistically nonsignificant inhibition
2,"Cc1ccc(C(=O)NCc2ccccc2)cc1-c1nc(N2CCC(N)CC2)nc2c1ccc(=O)n2-c1c(F)cccc1F [Example 71, 3-[2-(4-amino-1-piperidinyl)-8-(2,6-difluorophenyl)-7-oxo-7,8-dihydropyrido[2,3-d]pyrimidin-4-yl]-4-methyl-N-(phenylmethyl)benzamide]",statistically nonsignificant inhibition
3,"Cc1ccc(C(=O)Nc2ccc(F)cc2)cc1-c1nc(N2CCC(N)CC2)nc2c1ccc(=O)n2-c1c(F)cccc1F [Example 72, 3-[2-(4-amino-1-piperidinyl)-8-(2,6-difluorophenyl)-7-oxo-7,8-dihydropyrido[2,3-d]pyrimidin-4-yl]-N-(4-fluorophenyl)-4-methylbenzamide]",statistically significant inhibition
4,"Cc1ccc(C(=O)Nc2nccs2)cc1-c1nc(N2CCC(N)CC2)nc2c1ccc(=O)n2-c1c(F)cccc1F [Example 73, 3-[2-(4-amino-1-piperidinyl)-8-(2,6-difluorophenyl)-7-oxo-7,8-dihydropyrido[2,3-d]pyrimidin-4-yl]-4-methyl-N-1,3-thiazol-2-ylbenzamide]",statistically significant inhibition
5,"Cc1ccc(C(=O)NC2CCCC2)cc1-c1nc(NCc2ncc[nH]2)nc2c1ccc(=O)n2-c1c(F)cccc1F [Example 76, N-cyclopentyl-3-{8-(2,6-difluorophenyl)-2-[(1H-imidazol-2-ylmethyl)amino]-7-oxo-7,8-dihydropyrido[2,3-d]pyrimidin-4-yl}-4-methylbenzamide]",statistically nonsignificant inhibition
6,"Cc1ccc(C(=O)NCc2ccccc2)cc1-c1nc(NCc2ncc[nH]2)nc2c1ccc(=O)n2-c1c(F)cccc1F [Example 77, 3-{8-(2,6-difluorophenyl)-2-[(1H-imidazol-2-ylmethyl)amino]-7-oxo-7,8-dihydropyrido[2,3-d]pyrimidin-4-yl}-4-methyl-N-(phenylmethyl)benzamide]",statistically significant inhibition
7,"Cc1ccc(C(=O)Nc2ccc(F)cc2)cc1-c1nc(NCc2ncc[nH]2)nc2c1ccc(=O)n2-c1c(F)cccc1F [Example 78, 3-{8-(2,6-difluorophenyl)-2-[(1H-imidazol-2-ylmethyl)amino]-7-oxo-7,8-dihydropyrido[2,3-d]pyrimidin-4-yl}-N-(4-fluorophenyl)-4-methylbenzamide]",statistically significant inhibition
8,"Cc1ccc(C(=O)Nc2ccc(F)cc2)cc1-c1nc(NCCN(C)C(=O)OC(C)(C)C)nc2c1ccc(=O)n2-c1c(F)cccc1F [Example 95, 1,1-dimethylethyl(2-{[8-(2,6-difluorophenyl)-4-(5-{[(4-fluorophenyl)amino]carbonyl}-2-methylphenyl)-7-oxo-7,8-dihydropyrido[2,3-d]pyrimidin-2-yl]amino}ethyl)methylcarbamate]",statistically nonsignificant inhibition
9,"Cc1ccc(C(=O)Nc2ccc(F)cc2)cc1-c1nc(N(C)CCN(C)C)nc2c1ccc(=O)n2-c1c(F)cccc1F [Example 99, 3-{8-(2,6-difluorophenyl)-2-[[2-(dimethylamino)ethyl](methyl)amino]-7-oxo-7,8-dihydropyrido[2,3-d]pyrimidin-4-yl}-N-(4-fluorophenyl)-4-methylbenzamide]",statistically nonsignificant inhibition
10,"Cc1ccc(C(=O)Nc2nccs2)cc1-c1nc(NCCCNC(C)C)nc2c1ccc(=O)n2-c1c(F)cccc1F [Example 101, 3-[8-(2,6-difluorophenyl)-2-({3-[(1-methylethyl)amino]propyl}amino)-7-oxo-7,8-dihydropyrido[2,3-d]pyrimidin-4-yl]-4-methyl-N-1,3-thiazol-2-ylbenzamide]",statistically significant inhibition
11,"Cc1ccc(C(=O)Nc2nccs2)cc1-c1nc(NCCCNC(C)(C)C)nc2c1ccc(=O)n2-c1c(F)cccc1F [Example 102, 3-[8-(2,6-difluorophenyl)-2-({3-[(1,1-dimethylethyl)amino]propyl}amino)-7-oxo-7,8-dihydropyrido[2,3-d]pyrimidin-4-yl]-4-methyl-N-1,3-thiazol-2-ylbenzamide]",statistically nonsignificant inhibition
12,"Cc1ccc(C(=O)Nc2nccs2)cc1-c1nc(NCCNC(C)C)nc2c1ccc(=O)n2-c1c(F)cccc1F [Example 103, 3-[8-(2,6-difluorophenyl)-2-({2-[(1-methylethyl)amino]ethyl}amino)-7-oxo-7,8-dihydropyrido[2,3-d]pyrimidin-4-yl]-4-methyl-N-1,3-thiazol-2-ylbenzamide]",statistically significant inhibition
13,"Cc1ccc(C(=O)Nc2nccs2)cc1-c1nc(N(C)CCCN(C)C)nc2c1ccc(=O)n2-c1c(F)cccc1F [Example 107, 3-{8-(2,6-difluorophenyl)-2-[[3-(dimethylamino)propyl](methyl)amino]-7-oxo-7,8-dihydropyrido[2,3-d]pyrimidin-4-yl}-4-methyl-N-1,3-thiazol-2-ylbenzamide]",statistically significant inhibition
14,"Cc1ccc(C(=O)Nc2nccs2)cc1-c1nc(NCCN(C)C)nc2c1ccc(=O)n2-c1c(F)cccc1F [Example 109, 3-(8-(2,6-difluorophenyl)-2-{[2-(dimethylamino)ethyl]amino}-7-oxo-7,8-dihydropyrido[2,3-d]pyrimidin-4-yl)-4-methyl-N-1,3-thiazol-2-ylbenzamide]",statistically significant inhibition
15,"Cc1ccc(C(=O)Nc2ccc(F)cc2)cc1-c1nc(NCCN(C)C)nc2c1ccc(=O)n2-c1c(F)cccc1F [Example 112, 3-(8-(2,6-difluorophenyl)-2-{[2-(dimethylamino)ethyl]amino}-7-oxo-7,8-dihydropyrido[2,3-d]pyrimidin-4-yl)-N-(4-fluorophenyl)-4-methylbenzamide]",statistically nonsignificant inhibition
16,"Cc1ccc(C(=O)NC(C)C)cc1-c1nc(NCCN(C)C)nc2c1ccc(=O)n2-c1c(F)cccc1F [Example 117, 3-(8-(2,6-difluorophenyl)-2-{[2-(dimethylamino)ethyl]amino}-7-oxo-7,8-dihydropyrido[2,3-d]pyrimidin-4-yl)-4-methyl-N-(1-methylethyl)benzamide]",statistically significant inhibition
17,"CCN(CC)CCCNc1nc(-c2cc(C(=O)NC)ccc2C)c2ccc(=O)n(-c3c(F)cccc3F)c2n1 [Example 119, 3-[2-{[3-(diethylamino)propyl]amino}-8-(2,6-difluorophenyl)-7-oxo-7,8-dihydropyrido[2,3-d]pyrimidin-4-yl]-N,4-dimethylbenzamide]",statistically significant inhibition
18,"CCN(CC)CCCNc1nc(-c2cc(C(=O)N(C)C)ccc2C)c2ccc(=O)n(-c3c(F)cccc3F)c2n1 [Example 120, 3-[2-{[3-(diethylamino)propyl]amino}-8-(2,6-difluorophenyl)-7-oxo-7,8-dihydropyrido[2,3-d]pyrimidin-4-yl]-N,N,4-trimethylbenzamide]",statistically nonsignificant inhibition; also recorded: inactive
19,"CCCNC(=O)c1ccc(C)c(-c2nc(NCCCN(CC)CC)nc3c2ccc(=O)n3-c2c(F)cccc2F)c1 [Example 122, 3-[2-{[3-(diethylamino)propyl]amino}-8-(2,6-difluorophenyl)-7-oxo-7,8-dihydropyrido[2,3-d]pyrimidin-4-yl]-4-methyl-N-propylbenzamide]",statistically nonsignificant inhibition
20,"CCN(CC)CCCNc1nc(-c2cc(C(=O)NCC(C)C)ccc2C)c2ccc(=O)n(-c3c(F)cccc3F)c2n1 [Example 124, 3-[2-{[3-(diethylamino)propyl]amino}-8-(2,6-difluorophenyl)-7-oxo-7,8-dihydropyrido[2,3-d]pyrimidin-4-yl]-4-methyl-N-(2-methylpropyl)benzamide]",statistically significant inhibition
21,"CCN(CC)CCCNc1nc(-c2cc(C(=O)NC3CCCC3)ccc2C)c2ccc(=O)n(-c3c(F)cccc3F)c2n1 [Example 125, N-cyclopentyl-3-[2-{[3-(diethylamino)propyl]amino}-8-(2,6-difluorophenyl)-7-oxo-7,8-dihydropyrido[2,3-d]pyrimidin-4-yl]-4-methylbenzamide]",statistically nonsignificant inhibition
22,"CCN(CC)CCCNc1nc(-c2cc(C(=O)NCC(F)(F)F)ccc2C)c2ccc(=O)n(-c3c(F)cccc3F)c2n1 [Example 128, 3-[2-{[3-(diethylamino)propyl]amino}-8-(2,6-difluorophenyl)-7-oxo-7,8-dihydropyrido[2,3-d]pyrimidin-4-yl]-4-methyl-N-(2,2,2-trifluoroethyl)benzamide]",inactive

# — patent US20100144755A1 (Glaxo Group Limited, priority 2006, published 2010)
